Calls of active or inactive are those of the source. No rule for the calls is given here.
System: CCRIS mutagenicity, Ames/micronucleus/aberration tests
Assay: CCRIS mutagenicity studies
[1] = Test System: AMES SALMONELLA TYPHIMURIUM, Strain/Indicator: TA98, Metabolic Activation: NONE, Method: PREINCUBATION
[2] = Test System: AMES SALMONELLA TYPHIMURIUM, Strain/Indicator: TA100, Metabolic Activation: NONE, Method: PREINCUBATION
[3] = Test System: AMES SALMONELLA TYPHIMURIUM, Strain/Indicator: TA100, Metabolic Activation: RAT, LIVER, S-9, PCB, Method: PREINCUBATION
[4] = Test System: AMES SALMONELLA TYPHIMURIUM, Strain/Indicator: TA1535, Metabolic Activation: NONE, Method: PREINCUBATION
[5] = Test System: AMES SALMONELLA TYPHIMURIUM, Strain/Indicator: TA1537, Metabolic Activation: NONE, Method: PREINCUBATION
[6] = Test System: AMES SALMONELLA TYPHIMURIUM, Strain/Indicator: TA97, Metabolic Activation: NONE, Method: PREINCUBATION
[7] = Test System: AMES SALMONELLA TYPHIMURIUM, Strain/Indicator: TA98, Metabolic Activation: RAT, LIVER, S-9, KANECHLOR 500, Method: PREINCUBATION
[8] = Test System: AMES SALMONELLA TYPHIMURIUM, Strain/Indicator: TA100, Metabolic Activation: RAT, LIVER, S-9, KANECHLOR 500, Method: PREINCUBATION

## CC(CCN(C)C)N(C)C (centres undefined)
Test System: AMES SALMONELLA TYPHIMURIUM, Strain/Indicator: TA98, Metabolic Activation: HAMSTER, LIVER, S-9, AROCLOR 1254 (10%), Method: PREINCUBATION
  mutagenic call: inactive; negative
[1]
  mutagenic call: inactive; negative
Test System: AMES SALMONELLA TYPHIMURIUM, Strain/Indicator: TA98, Metabolic Activation: RAT, LIVER, S-9, AROCLOR 1254 (10%), Method: PREINCUBATION
  mutagenic call: inactive; negative
Test System: AMES SALMONELLA TYPHIMURIUM, Strain/Indicator: TA98, Metabolic Activation: RAT, LIVER, S-9, PCB, Method: PREINCUBATION
  mutagenic call: inactive; negative
Test System: AMES SALMONELLA TYPHIMURIUM, Strain/Indicator: TA100, Metabolic Activation: HAMSTER, LIVER, S-9, AROCLOR 1254 (10%), Method: PREINCUBATION
  mutagenic call: inactive; negative
[2]
  mutagenic call: inactive; negative
Test System: AMES SALMONELLA TYPHIMURIUM, Strain/Indicator: TA100, Metabolic Activation: RAT, LIVER, S-9, AROCLOR 1254 (10%), Method: PREINCUBATION
  mutagenic call: inactive; negative
[3]
  mutagenic call: inactive; negative
Test System: AMES SALMONELLA TYPHIMURIUM, Strain/Indicator: TA1535, Metabolic Activation: HAMSTER, LIVER, S-9, AROCLOR 1254 (10%), Method: PREINCUBATION
  mutagenic call: inactive; negative
[4]
  mutagenic call: inactive; negative
Test System: AMES SALMONELLA TYPHIMURIUM, Strain/Indicator: TA1535, Metabolic Activation: RAT, LIVER, S-9, AROCLOR 1254 (10%), Method: PREINCUBATION
  mutagenic call: inactive; negative
Test System: AMES SALMONELLA TYPHIMURIUM, Strain/Indicator: TA1537, Metabolic Activation: HAMSTER, LIVER, S-9, AROCLOR 1254 (10%), Method: PREINCUBATION
  mutagenic call: inactive; negative
[5]
  mutagenic call: inactive; negative
Test System: AMES SALMONELLA TYPHIMURIUM, Strain/Indicator: TA1537, Metabolic Activation: RAT, LIVER, S-9, AROCLOR 1254 (10%), Method: PREINCUBATION
  mutagenic call: inactive; negative

## CN(Cc1cnc2nc(N)nc(N)c2n1)c1c(Cl)cc(C(=O)N[C@@H](CCC(=O)O)C(=O)O)cc1Cl
Test System: AMES SALMONELLA TYPHIMURIUM, Strain/Indicator: TA97, Metabolic Activation: HAMSTER, LIVER, S-9, AROCLOR 1254 (10 OR 30%), Method: PREINCUBATION
  mutagenic call: inactive; negative
[6]
  mutagenic call: inactive; negative
Test System: AMES SALMONELLA TYPHIMURIUM, Strain/Indicator: TA97, Metabolic Activation: RAT, LIVER, S-9, AROCLOR 1254 (10 OR 30%), Method: PREINCUBATION
  mutagenic call: inactive; negative
Test System: AMES SALMONELLA TYPHIMURIUM, Strain/Indicator: TA98, Metabolic Activation: HAMSTER, LIVER, S-9, AROCLOR 1254 (10 OR 30%), Method: PREINCUBATION
  mutagenic call: inactive; negative
[1]
  mutagenic call: inactive; negative
Test System: AMES SALMONELLA TYPHIMURIUM, Strain/Indicator: TA98, Metabolic Activation: RAT, LIVER, S-9, AROCLOR 1254 (10 OR 30%), Method: PREINCUBATION
  mutagenic call: inactive; negative
Test System: AMES SALMONELLA TYPHIMURIUM, Strain/Indicator: TA100, Metabolic Activation: HAMSTER, LIVER, S-9, AROCLOR 1254 (10 OR 30%), Method: PREINCUBATION
  mutagenic call: inactive; negative
[2]
  mutagenic call: inactive; negative
Test System: AMES SALMONELLA TYPHIMURIUM, Strain/Indicator: TA100, Metabolic Activation: RAT, LIVER, S-9, AROCLOR 1254 (10 OR 30%), Method: PREINCUBATION
  mutagenic call: inactive; negative
Test System: AMES SALMONELLA TYPHIMURIUM, Strain/Indicator: TA1535, Metabolic Activation: HAMSTER, LIVER, S-9, AROCLOR 1254 (10 OR 30%), Method: PREINCUBATION
  mutagenic call: inactive; negative
[4]
  mutagenic call: inactive; negative
Test System: AMES SALMONELLA TYPHIMURIUM, Strain/Indicator: TA1535, Metabolic Activation: RAT, LIVER, S-9, AROCLOR 1254 (10 OR 30%), Method: PREINCUBATION
  mutagenic call: inactive; negative
Test System: AMES SALMONELLA TYPHIMURIUM, Strain/Indicator: TA1537, Metabolic Activation: HAMSTER, LIVER, S-9, AROCLOR 1254 (10 OR 30%), Method: PREINCUBATION
  mutagenic call: inactive; negative
[5]
  mutagenic call: inactive; negative
Test System: AMES SALMONELLA TYPHIMURIUM, Strain/Indicator: TA1537, Metabolic Activation: RAT, LIVER, S-9, AROCLOR 1254 (10 OR 30%), Method: PREINCUBATION
  mutagenic call: inactive; negative

## CC(CCl)OC(C)CCl (centres undefined)
End Point: IN VITRO CHROMOSOMAL ABERRATIONS, Test System: CHINESE HAMSTER OVARY CELLS, Metabolic Activation: NONE
  mutagenic call: inactive; negative; precipitation occurred at all doses
End Point: IN VITRO CHROMOSOMAL ABERRATIONS, Test System: CHINESE HAMSTER OVARY CELLS, Metabolic Activation: RAT, LIVER, S-9, AROCLOR 1254
  mutagenic call: active; positive; precipitation occurred at 497, 730 and 993 ug/ml

## Cc1cc2nc3c(=O)[nH]c(=O)nc-3n(C)c2cc1C
Test System: AMES SALMONELLA TYPHIMURIUM, Strain/Indicator: TA97A, Metabolic Activation: NONE, Method: PREINCUBATION
  mutagenic call: inactive; negative
Test System: AMES SALMONELLA TYPHIMURIUM, Strain/Indicator: TA97A, Metabolic Activation: RAT, CECAL CELL-FREE EXTRACT, Method: PREINCUBATION
  mutagenic call: active; positive
Test System: AMES SALMONELLA TYPHIMURIUM, Strain/Indicator: TA97A, Metabolic Activation: RAT, LIVER, S9, AROCLOR 1254, Method: PREINCUBATION
  mutagenic call: active; positive
[1]
  mutagenic call: inactive; negative
Test System: AMES SALMONELLA TYPHIMURIUM, Strain/Indicator: TA98, Metabolic Activation: RAT, CECAL CELL-FREE EXTRACT, Method: PREINCUBATION
  mutagenic call: inactive; negative
Test System: AMES SALMONELLA TYPHIMURIUM, Strain/Indicator: TA98, Metabolic Activation: RAT, LIVER, S9, AROCLOR 1254, Method: PREINCUBATION
  mutagenic call: active; positive
[2]
  mutagenic call: inactive; negative
Test System: AMES SALMONELLA TYPHIMURIUM, Strain/Indicator: TA100, Metabolic Activation: RAT, CECAL CELL-FREE EXTRACT, Method: PREINCUBATION
  mutagenic call: inactive; negative
Test System: AMES SALMONELLA TYPHIMURIUM, Strain/Indicator: TA100, Metabolic Activation: RAT, LIVER, S9, AROCLOR 1254, Method: PREINCUBATION
  mutagenic call: inactive; negative

## OC[C@@H](O)CCl
[1]
  mutagenic call: inactive; negative
[7]
  mutagenic call: inactive; negative
[2]
  mutagenic call: active; positive
[8]
  mutagenic call: inactive; negative
[3]
  mutagenic call: active; positive

## O=[N+]([O-])c1ccc(F)c([N+](=O)[O-])c1
Test System: AMES SALMONELLA TYPHIMURIUM, Strain/Indicator: TA98(1,8-DNP6), Metabolic Activation: NONE, Method: PREINCUBATION
  mutagenic call: active; positive
Test System: AMES SALMONELLA TYPHIMURIUM, Strain/Indicator: TA98(NR), Metabolic Activation: NONE, Method: PREINCUBATION
  mutagenic call: active; positive
[1]
  mutagenic call: active; positive
[7]
  mutagenic call: active; positive
Test System: AMES SALMONELLA TYPHIMURIUM, Strain/Indicator: TA100(NR), Metabolic Activation: NONE, Method: PREINCUBATION
  mutagenic call: active; positive
Test System: AMES SALMONELLA TYPHIMURIUM, Strain/Indicator: TA100/GSH-, Metabolic Activation: NONE, Method: PREINCUBATION
  mutagenic call: active; positive
[2]
  mutagenic call: active; positive
[8]
  mutagenic call: active; positive

## [O]=[Mg]
[6]
  mutagenic call: inactive; negative
Test System: AMES SALMONELLA TYPHIMURIUM, Strain/Indicator: TA97, Metabolic Activation: S-9, Method: PREINCUBATION
  mutagenic call: inactive; negative
[2]
  mutagenic call: inactive; negative
Test System: AMES SALMONELLA TYPHIMURIUM, Strain/Indicator: TA100, Metabolic Activation: RAT, LIVER, S-9, Method: PREINCUBATION
  mutagenic call: inactive; negative
Test System: AMES SALMONELLA TYPHIMURIUM, Strain/Indicator: TA102, Metabolic Activation: NONE, Method: PREINCUBATION
  mutagenic call: inactive; negative
Test System: AMES SALMONELLA TYPHIMURIUM, Strain/Indicator: TA102, Metabolic Activation: S-9, Method: PREINCUBATION
  mutagenic call: inactive; negative

— PubChem BioAssay AID1259407 (Chemical Carcinogenesis Research Information System (CCRIS), 2018)
